According to patent US9029092B2, “Solution phase homogeneous assays” (Beckman Coulter, Inc., priority 2009, dated 2015):
Several values for one entry are separate records, joined by “and”; a condition that tells them apart may be missing. Equal values may be shown once.

Assays:
biotinylated HRP = experiment: Model system for selection of SSIA (AK1/streptavidin BSA microparticles + biotinylated HRP); format: biochemical, horseradish; settings: SSIA 100 μM final
Procedure, shortened: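 Streptavidin/AK1/biotin-BSA M280 microparticles mixed with candidate SSIA (100 μM final) and Btn-HRP at 0, 1, 10, 100 or 250 ng/mL, with unlabeled HRP to 500 ng/mL total HRP. After 30 min at 37° C, trigger solution was added and light intensity recorded on a modified DxI analyzer.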

PSA [1] = experiment: Assay of PSA with direct-labeled sbp's (Ab1-AK11, Ab2-HRP) with and without SSIA; format: biochemical, human; settings: 600 μM ascorbic acid solution
Description: The Ab1-AK11 conjugate was provided in PBS, pH 7.4 at 10 μg/ml. The Ab2-HRP conjugate was provided in PBS, pH 7.4 at 0.25 μg/ml. […] For comparison without SSIA, in a second reaction vessel, 25 μl of Ab1-AK11 conjugate, 25 μl of water, 25 μl of Ab2-HRP conjugate were added to 25 μl of sample and incubated for 15 minutes.
Each sample was analyzed according to the above assay method in triplicate. The RLU data collected for each assayed sample during the time interval of 495 milliseconds starting 125 milliseconds from start of trigger solution introduction into the reaction vessel was summed for each individual run, averaged over the triplicates for each sample and presented in Table 13. A ratio of signal to noise (S/S0) was calculated at each concentration value.

PSA [2] = experiment: Assay of PSA with dextran scaffold chemiluminescent-labeled sbp with and without SSIA; format: biochemical, human; settings: ascorbic acid as SSIA
Description: In this example, one member of a specific binding pair of monoclonal antibodies for PSA is conjugated to a dextran molecule coupled with AK1, as described in Example 10 below, except the antibody is thiolated and covalently-linked to AK11-labeled and maleimide-activated dextran. A second monoclonal PSA antibody was conjugated to HRP, as described above and provided in an aqueous solution at either 0.5 μg/ml, 0.1 μg/ml or 0.03 μg/ml as indicated in the tables below. The assays were performed by placing 25 μl of sample in each of two reaction vessels. To the sample in the first reaction vessel, 25 μl of Ab1 solution, 25 μl of water, 25 μl of Ab2 solution was added and incubated for 15 minutes. […] Each sample was analyzed according to the above assay method in triplicate. […] A ratio of signal to noise (S/S0) was calculated at each concentration value. […] Samples of known concentration were prepared as described previously. Each sample was analyzed according to the above method in triplicate.

O=C1O[C@H]([C@@H](O)CO)C(O)=C1O [Ascorbic Acid]
light intensity, BTN-HRP0 (biotinylated HRP; Btn-HRP 0 ng/mL, total HRP 500 ng/mL): 97 and 151
S1/S0 (biotinylated HRP; Btn-HRP 1 ng/mL vs 0): 7.8 and 6.6
light intensity, BTN-HRP1 (biotinylated HRP; Btn-HRP 1 ng/mL, total HRP 500 ng/mL): 757 and 995
S2/S0 (biotinylated HRP; Btn-HRP 10 ng/mL vs 0): 171.6 and 216.2
light intensity, BTN-HRP10 (biotinylated HRP; Btn-HRP 10 ng/mL, total HRP 500 ng/mL): 16,641 and 32,568
S3/S0 (biotinylated HRP; Btn-HRP 100 ng/mL vs 0): 38064.9 and 30222.2
light intensity, BTN-HRP100 (biotinylated HRP; Btn-HRP 100 ng/mL, total HRP 500 ng/mL): 3,692,291 and 4,553,473
S4/S0 (biotinylated HRP; Btn-HRP 250 ng/mL vs 0): 62228.3 and 59176.1
light intensity, BTN-HRP250 (biotinylated HRP; Btn-HRP 250 ng/mL, total HRP 500 ng/mL): 6,036,145 and 8,915,869
effectiveness as SSIA in the model system (biotinylated HRP): demonstrating utility as SSIA
RLU, With SSIA (PSA [1]; PSA 0.0 ng/mL): 180 RLU
S/S0, With SSIA (PSA [1]; PSA 0.0 ng/mL): 1.0
RLU, With SSIA (PSA [1]; PSA 0.4 ng/mL): 324 RLU
S/S0, With SSIA (PSA [1]; PSA 0.4 ng/mL): 1.8
RLU, With SSIA (PSA [1]; PSA 7.0 ng/mL): 3032 RLU
S/S0, With SSIA (PSA [1]; PSA 7.0 ng/mL): 16.8
RLU, With SSIA (PSA [1]; PSA 101.6 ng/mL): 23119 RLU
S/S0, With SSIA (PSA [1]; PSA 101.6 ng/mL): 128.4
RLU, w/SSIA (PSA [2]; PSA 0.0 ng/mL): 1756 RLU
S/S0, w/SSIA (PSA [2]; PSA 0.0 ng/mL): 1.0
RLU, w/SSIA (PSA [2]; PSA 0.4 ng/mL): 4393 RLU
S/S0, w/SSIA (PSA [2]; PSA 0.4 ng/mL): 2.5
RLU, w/SSIA (PSA [2]; PSA 7.0 ng/mL): 57119 RLU
S/S0, w/SSIA (PSA [2]; PSA 7.0 ng/mL): 32.5
RLU, w/SSIA (PSA [2]; PSA 101.6 ng/mL): 604024 RLU
S/S0, w/SSIA (PSA [2]; PSA 101.6 ng/mL): 344.0
